Results reported in patent publication US20260265244A1, “HETEROCYCLIC COMPOUNDS AS STING ANTAGONISTS” (Boehringer Ingelheim International GmbH, priority 2022, published 2026).

Columns and labels:
human STING WT (R232) = target: T1, human STING WT (R232) (Homo sapiens, UniProt Q86WV6, H232R); experiment: Human STING HTRF binding assay (competitive, Cisbio 64BDSTGPEG)
T1 construct: purchased Cisbio 64BDSTGPEG
Experimental: Binders to human STING WT (R232) were identified using a competitive HTRF assay format (Cisbio 64BDSTGPEG), which uses d2-labeled STING ligand, a 6His (SEQ ID NO: 2) tagged human STING protein, and an anti 6His (SEQ ID NO: 2) Cryptate-labeled antibody. Compounds compete with the STING ligand-d2 and thereby prevents FRET from occurring, which can be measured by an EnVision™ reader (PerkinElmer).
Assay method: Compounds were delivered as 10 mM DMSO solution, serially diluted by an Agilent Bravo Workstation and transferred to the 384 well assay plate (Perkin Elmer #6005359) using a Cybiwell dispenser. Typically, 8 concentrations were used with the highest concentration at 10 μM or 1 μM in the final assay volume followed by ~1:5 dilution steps. DMSO concentration was set to 1% in the final assay volume. The 384 well assay plate contained 20 test compounds and DMSO in column 23 and 24. A cGAMP standard dilution row was prepared according to the manufacturer and transferred to each assay plate. After transfer of compound solution or dilution buffer for negative (high) and positive (low) controls, 5 μl of the human STING protein (cyclic binding domain (residues 138-379) of the WT R232 human version, fused to a 6 His tag (SEQ ID NO: 2) at the Nter part; 1:50 dilution in detection buffer) were dispensed to all wells except of the positive control, which received detection buffer only. Plates were the centrifuged for 20 sec at 1000 rpm. After that, 10 μl of Anti-6His-Cryptate antibody/Sting ligand-d2 mix was added to all wells using a Multidrop combi dispenser, followed by another sec/1000 rpm centrifugation step. After an incubation of the plates for 180 min at room temperature, […] at […] (HTRF ratio) was measured using an Envison Reader (PerkinElmer).
Data evaluation and calculation: For data evaluation and calculation, HTRF ratios were calibrated using the cGAMP standard curve. After that, the measurement of the low control was set as 0% control and the measurement of the high control was set as 100% control. The IC50 values were calculated using the standard 4 parameter logistic regression formula. Calculation: [y=(a−d)/(1+(x/c)^b)+d], a=low value, d=high value; x=conc M; c=IC50 M; b=slope;

[1] = system: STING inhibition in human whole blood (IFNα2α production); experiment: Human whole blood assay (HWBA): cGAMP-stimulated IFNα2α production; format: cell-based; conditions: Homo sapiens
Experimental: For the detection of STING inhibition in physiological environment human whole blood was stimulated by the cyclic dinucleotide cGAMP. Pathway activity was monitored by measuring the IFNα2α production.
Assay method: Compounds were delivered as 10 mM DMSO solution and serial diluted and transferred to the 96-well Cell culture Plate (Corning #3595), prefilled with 20 μl OptiMEM (Gibco #11058-021) in each well, using an Echo acoustic dispenser. Typically, 8 concentrations were used with the highest concentration at 10 μM in the final assay volume followed by ~1:5 dilution steps. DMSO concentration was set to 0.1% in the final assay volume. The 96 well assay plate contained 9 test compounds, a reference compound and DMSO in control wells.
Collection of human whole blood from 3 or more healthy donors (male or female, no medication for 7 days, exception contraceptive and thyroxine) as Na-citrate blood (e.g. 3.8% in Monovettes from Sarstedt) is conducted in parallel. Whole blood was kept at room temperature for a maximum of 3 hours after collection until use in the assay.
160 μl of the whole blood samples were transferred to each well of the 96-well assay plates filled with compound/OptiMEM. All assay plates are prepared as duplicates with blood from different donors. Blood plates were kept at room temperature for 60 minutes and continuous shaking with 450 rpm, covered with the lid, but not sealed.
A 10× cGAMP assay solution was diluted from a 2 mM stock solution in 1×HBSS immediately before use at room temperature. 20 μl of the 10× cGAMP/HBSS were added to all compound and all high control wells, whereas HBSS only was added to all low control wells.
After covering assay plates with aera seals and the lid, blood plates were kept at room temperature for 30 minutes and continuous shaking with 450 rpm, followed by an overnight incubation of 22 h at 37° C. in the incubator, without shaking.
For the detection of IFNα-2α in human plasma, the biotinylated capture antibody (Antibody set IFNA2, Meso Scale Diagnostics #B21VH-3, including coating and capture antibody) was diluted 1:17.5 in Diluent 100 (Meso Scale Diagnostics #R50AA-4, according to the manufacturer. U-Plex MSD GOLD 96-well Small Spot Streptavidin SECTOR Plates (Meso Scale Diagnostics #L45SA-5) were coated with 25 μl diluted capture antibody. Coated plates were incubated for 60 min at room temperature under continuous shaking at 700 rpm. MSD IFNα-2α plates were washed three times with 150 μl wash buffer (1×HBSS, 0.05% Tween).
After blocking the plates with 100 μl block solution/well (1×HBSS with 0.2% Tween, 2% BSA) for 60 min at room temperature and continuous shaking at 700 rpm, plates were emptied as dry as possible by dumping just before continuing with the human plasma. Whole Blood assay plates were centrifuged at 1600 rpm for 10 minutes. 25 μl of supernatant was transferred with a pipetting robotics from each whole blood plate to the corresponding IFNα-2α plate. Plates were sealed with microplate seals and kept at room temperature again under continuous shaking at 700 rpm for two hours. Next MSD IFNα-2α plates were washed three times with 150 μl wash buffer (1×HBSS, 0.05% Tween), before adding 25 μl MSD SULFO-TAG IFNα-2α Antibody solution (1:100 diluted in Diluent 3 (Meso Scale Diagnostics #R50AP-2) to each well of the plates. Afterwards plates were sealed with microplate seals and kept at room temperature again under continuous shaking at 700 rpm for two hours. Finally MSD IFNα-2α plates were washed three times with 150 μl wash buffer (1×HBSS, 0.05% Tween). 150 μl 2×Read buffer was added to each well and plates were immediately measured with the MSD Sector S600 Reader using the vendor barcode.
Data evaluation and calculation: For data evaluation and calculation, % control calculation of each well was based on the mean of high (cGAMP stimulated control) and mean of low (unstimulated control) controls by using the following formula: […]

T1 sequence (Q86WV6 138-379 H232R): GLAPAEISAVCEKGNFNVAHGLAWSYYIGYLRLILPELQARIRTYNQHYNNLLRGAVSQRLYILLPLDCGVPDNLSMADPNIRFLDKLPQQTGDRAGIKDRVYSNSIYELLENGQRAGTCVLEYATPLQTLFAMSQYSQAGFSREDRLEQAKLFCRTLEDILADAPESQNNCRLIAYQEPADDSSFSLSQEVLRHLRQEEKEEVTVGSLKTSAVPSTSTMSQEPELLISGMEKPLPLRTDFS

Row | SMILES | IC50 (human STING WT (R232)) [nM] | IC50 [1] [nM]
1 | Cc1nc2nn(CCN3CCOCC3)cc2cc1-n1nc(-c2cccc3nn(C[C@H](O)c4ccccc4)cc23)c(C(C)C)c1C [Example 1, (1R)-2-[4-(5-methyl-1-{6-methyl-2-[2-(morpholin-4-yl)ethyl]-2H-pyrazolo[3,4-b]pyridin-5-yl}-4-(propan-2-yl)-1H-pyrazol-3-yl)-2H-indazol-2-yl]-1-phenylethan-1-ol] | 12.1 | 73
2 | Cc1nc2nn(CCCC#N)cc2cc1-n1nc(-c2cccc3nn(C[C@H](O)c4ccccc4)cc23)c(C(C)C)c1C [Example 2, 4-[5-(3-{2-[(2R)-2-hydroxy-2-phenylethyl]-2H-indazol-4-yl}-5-methyl-4-(propan-2-yl)-1H-pyrazol-1-yl)-6-methyl-2H-pyrazolo[3,4-b]pyridin-2-yl]butanenitrile] | 15.8 | 54
3 | Cc1nc2nn(Cc3cccnc3)cc2cc1-n1nc(-c2cccc3nn(C[C@H](O)c4ccccc4)cc23)c(C(C)C)c1C [Example 6, (1R)-2-[4-(5-methyl-1-{6-methyl-2-[(pyridin-3-yl)methyl]-2H-pyrazolo[3,4-b]pyridin-5-yl}-4-(propan-2-yl)-1H-pyrazol-3-yl)-2H-indazol-2-yl]-1-phenylethan-1-ol] | 14.2 | 61
4 | Cc1nc2nn(CCCN3CCN(C)CC3)cc2cc1-n1nc(-c2cccc3nn(C[C@H](O)c4ccccc4)cc23)c(C(C)C)c1C [Example 7, (1R)-2-[4-(5-methyl-1-{6-methyl-2-[3-(4-methylpiperazin-1-yl)propyl]-2H-pyrazolo[3,4-b]pyridin-5-yl}-4-(propan-2-yl)-1H-pyrazol-3-yl)-2H-indazol-2-yl]-1-phenylethan-1-ol] | 24.6 | 61
5 | Cc1nc2nn(C)cc2cc1-n1nc(-c2cccc3nn(C[C@H](OCCO)c4ccccc4)cc23)c(C(C)C)c1C [Example 8, 2-[(1R)-2-[4-(1-{2,6-dimethyl-2H-pyrazolo[3,4-b]pyridin-5-yl}-5-methyl-4-(propan-2-yl)-1H-pyrazol-3-yl)-2H-indazol-2-yl]-1-phenylethoxy]ethan-1-ol] | 14.6 | 62
6 | COc1ccc(Cn2cc3cc(-c4nc(-c5cccc6nn(C[C@H](O)c7ccccc7)cc56)c(C5CC5)n4C)c(C4CC4)nc3n2)cc1 [Example 9, (1R)-2-[4-(5-cyclopropyl-2-{6-cyclopropyl-2-[(4-methoxyphenyl)methyl]-2H-pyrazolo[3,4-b]pyridin-5-yl}-1-methyl-1H-imidazol-4-yl)-2H-indazol-2-yl]-1-phenylethan-1-ol] | 14.1 | 63
7 | Cn1c(-c2cc3cn(CCN4CCOCC4)nc3nc2C2CC2)nc(-c2cccc3nn(C[C@H](O)c4ccccc4)cc23)c1C1CC1 [Example 10, (1R)-2-[4-(5-cyclopropyl-2-{6-cyclopropyl-2-[2-(morpholin-4-yl)ethyl]-2H-pyrazolo[3,4-b]pyridin-5-yl}-1-methyl-1H-imidazol-4-yl)-2H-indazol-2-yl]-1-phenylethan-1-ol] | 9.3 | 69
8 | Cc1nc2nn(CCCCO)cc2cc1-n1nc(-c2cccc3nn(C[C@H](O)c4ccccc4)cc23)c(C(C)C)c1C [Example 12, 4-[5-(3-{2-[(2R)-2-hydroxy-2-phenylethyl]-2H-indazol-4-yl}-5-methyl-4-(propan-2-yl)-1H-pyrazol-1-yl)-6-methyl-2H-pyrazolo[3,4-b]pyridin-2-yl]butan-1-ol] | 4.4 | 71
9 | Cc1c(C(C)C)c(-c2cccc3nn(C[C@H](O)c4ccccc4)cc23)nn1-c1cc2cn(C)nc2nc1C1CCCO1 (stereo partly drawn) [Example 13, (1R)-2-(4-{5-methyl-1-[2-methyl-6-(oxolan-2-yl)-2H-pyrazolo[3,4-b]pyridin-5-yl]-4-(propan-2-yl)-1H-pyrazol-3-yl}-2H-indazol-2-yl)-1-phenylethan-1-ol] | 17.5 | 73
10 | Cc1nc2nn(C3CCOC3)cc2cc1-n1nc(-c2cccc3nn(C[C@H](O)c4ccccc4)cc23)c(C(C)C)c1C (stereo partly drawn) [Example 14, (1R)-2-(4-{5-methyl-1-[6-methyl-2-(oxolan-3-yl)-2H-pyrazolo[3,4-b]pyridin-5-yl]-4-(propan-2-yl)-1H-pyrazol-3-yl}-2H-indazol-2-yl)-1-phenylethan-1-ol] | 9.1 | 76
11 | Cc1c(C(C)C)c(-c2cccc3nn(C[C@H](O)c4ccc(OCCN5CCOCC5)cc4)cc23)nn1-c1cc2cn(C)nc2nc1C1CC1 [Example 15, (1R)-2-[4-(1-{6-cyclopropyl-2-methyl-2H-pyrazolo[3,4-b]pyridin-5-yl}-5-methyl-4-(propan-2-yl)-1H-pyrazol-3-yl)-2H-indazol-2-yl]-1-{4-[2-(morpholin-4-yl)ethoxy]phenyl}ethan-1-ol] | 19.1 | 77
12 | COCCn1cc2cc(-n3nc(-c4cccc5nn(C[C@H](O)c6ccccc6)cc45)c(C(C)C)c3C)c(C)nc2n1 [Example 16, (1R)-2-(4-{1-[2-(2-methoxyethyl)-6-methyl-2H-pyrazolo[3,4-b]pyridin-5-yl]-5-methyl-4-(propan-2-yl)-1H-pyrazol-3-yl}-2H-indazol-2-yl)-1-phenylethan-1-ol] | 6.6 | 79
13 | COCc1nc2nn(C)cc2cc1-n1nc(-c2cccc3nn(C[C@H](O)c4ccccc4)cc23)c(C(C)C)c1C [Example 17, (1R)-2-(4-{1-[6-(methoxymethyl)-2-methyl-2H-pyrazolo[3,4-b]pyridin-5-yl]-5-methyl-4-(propan-2-yl)-1H-pyrazol-3-yl}-2H-indazol-2-yl)-1-phenylethan-1-ol] | 1.4 | 81
14 | Cc1nc2nn(C(C)C)cc2cc1-n1nc(-c2cccc3nn(C[C@H](O)c4ccccc4)cc23)c(C(C)C)c1C [Example 18, (1R)-2-(4-{5-methyl-1-[6-methyl-2-(propan-2-yl)-2H-pyrazolo[3,4-b]pyridin-5-yl]-4-(propan-2-yl)-1H-pyrazol-3-yl}-2H-indazol-2-yl)-1-phenylethan-1-ol] | 14.6 | 81
